In patent US6737383B1, “Herbicidal oxadiazolidines” (priority 1999, dated 2004):

Key:
[1] = test system: surinam grass; experiment: Test B pre/postemergence surinam grass; format: in vivo, Brachiaria decumbens
Procedure, shortened: (§1)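 Test chemicals in a non-phytotoxic solvent mixture with surfactant were sprayed preemergence onto planted seeds and postemergence onto plants 2 to 18 cm tall (1- to 4-leaf stage). After twelve to sixteen days in a greenhouse, injury was visually rated against untreated controls from 0 (no effect) to 10 (complete control).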

[2] = test system: blackgrass; experiment: Test B pre/postemergence blackgrass; format: in vivo, Alopecurus myosuroides
Procedure, shortened: as §1

[3] = test system: corn; experiment: Test B pre/postemergence corn; format: in vivo, Zea mays
Procedure, shortened: as §1

[4] = test system: cocklebur; experiment: Test B pre/postemergence cocklebur; format: in vivo, Xanthium strumarium
Procedure, shortened: as §1

[5] = test system: rape; experiment: Test B pre/postemergence rape; format: in vivo, Brassica napus; conditions: for Plant response rating, Rape: scale of 0 to 10 where 0 is no effect and 10 is complete control
Procedure, shortened: as §1

[6] = test system: sugar beet; experiment: Test B pre/postemergence sugar beet; format: in vivo, Beta vulgaris; conditions: for Plant response rating, Sugarbeets: scale of 0 to 10 where 0 is no effect and 10 is complete control
Procedure, shortened: as §1

[7] = test system: giant foxtail; experiment: Test B pre/postemergence giant foxtail; format: in vivo, Setaria faberii
Procedure, shortened: as §1

[8] = test system: pigweed; experiment: Test B pre/postemergence pigweed; format: in vivo, Amaranthus retroflexus
Procedure, shortened: as §1

[9] = test system: wild oat; experiment: Test B pre/postemergence wild oat; format: in vivo, Avena fatua; conditions: for Plant response rating, Wild oats: scale of 0 to 10 where 0 is no effect and 10 is complete control
Procedure, shortened: as §1

[10] = test system: velvetleaf; experiment: Test B pre/postemergence velvetleaf; format: in vivo, Abutilon theophrasti; conditions: for Plant response rating, Velvetleaf: scale of 0 to 10 where 0 is no effect and 10 is complete control
Procedure, shortened: as §1

[11] = test system: smallflower flatsedge; experiment: Test B flood test smallflower flatsedge; format: in vivo, Cyperus difformis
Procedure, shortened: (§2)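 Plants were grown to the 2-leaf stage before treatment with test chemical, then held in a greenhouse for twelve to sixteen days. Injury was visually rated against untreated controls on a 0–10 scale, where 0 is no effect and 10 is complete control.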

[12] = test system: morningglory; experiment: Test B pre/postemergence morningglory; format: in vivo, Ipomoea hederacea; conditions: for Plant response rating, Morningglory: scale of 0 to 10 where 0 is no effect and 10 is complete control
Procedure, shortened: as §1

[13] = test system: bedstraw; experiment: Test B pre/postemergence bedstraw; format: in vivo, Galium aparine; conditions: Postemergence
Procedure, shortened: as §1

[14] = test system: wheat; experiment: Test B pre/postemergence wheat; format: in vivo, Triticum aestivum; conditions: for Plant response rating, Wheat: scale of 0 to 10 where 0 is no effect and 10 is complete control
Procedure, shortened: as §1

[15] = test system: rice; experiment: Test B flood test rice; format: in vivo, Oryza sativa
Procedure, shortened: as §2

[16] = test system: soybean; experiment: Test B pre/postemergence soybean; format: in vivo, Glycine max; conditions: for Plant response rating, Soybean: scale of 0 to 10 where 0 is no effect and 10 is complete control
Procedure, shortened: as §1

[17] = Postemergence, Rate 500 g/ha, scale of 0 to 10 where 0 is no effect and 10 is complete control
[18] = Preemergence, Rate 62 g/ha, scale of 0 to 10 where 0 is no effect and 10 is complete control
[19] = Preemergence, Rate 125 g/ha, scale of 0 to 10 where 0 is no effect and 10 is complete control
[20] = Preemergence, Rate 250 g/ha, scale 0 to 10, 0 is no effect, 10 is complete control
[21] = Preemergence, Rate 500 g/ha, scale 0 to 10, 0 is no effect, 10 is complete control
[22] = Rate 62 g/ha, Postemergence, scale 0 to 10 (0 no effect, 10 complete control)
[23] = Rate 125 g/ha, Postemergence, scale 0 to 10, 0 is no effect, 10 is complete control
[24] = Postemergence, Rate 250 g/ha, scale 0 to 10
[25] = Rate 62 g/ha, flood test species, Pre-emergence, visual evaluation after twelve to sixteen days
[26] = Rate 125 g/ha, under heading Pre-emergence, flood test species, visual evaluation after twelve to sixteen days
[27] = Rate 250 g/ha, Pre-emergence (flood test species), scale 0 to 10, 0 is no effect, 10 is complete control
[28] = Rate 500 g/ha, Pre-emergence, flood test species, scale 0 to 10 (0 no effect, 10 complete control)

CC(C)N(C(=O)n1oc(=O)n(C(C)C(=O)N(C)C)c1=O)c1ccc(Cl)cc1 (centres unmarked) [Compound 480]
B. signalgrass plant response rating ([1]; Postemergence, Rate 250 g/ha, scale 0 to 10, 0 no effect, 10 complete control): 5 | B. signalgrass plant response rating [1, 17]: 6 | Plant response rating, B. signalgrass [1, 18]: 0 | Plant response rating, B. signalgrass [1, 19]: 4 | B. signalgrass plant response rating [1, 20]: 7 | B. signalgrass plant response rating [1, 21]: 9 | B. signalgrass plant response rating [1, 22]: 0 | B. signalgrass plant response rating [1, 23]: 3 | Blackgrass plant response rating [2, 24]: 3 | Blackgrass plant response rating [2, 17]: 8 | Plant response rating, Blackgrass [2, 18]: 3 | Plant response rating, Blackgrass [2, 19]: 5 | Blackgrass plant response rating [2, 20]: 8 | Blackgrass plant response rating [2, 21]: 9 | Blackgrass plant response rating [2, 22]: 0 | Blackgrass plant response rating [2, 23]: 3 | Corn plant response rating [3, 24]: 0 | Corn plant response rating [3, 17]: 2 | Plant response rating, Corn [3, 18]: 0 | Plant response rating, Corn [3, 19]: 0 | Corn plant response rating [3, 20]: 0 | Corn plant response rating [3, 21]: 3 | Corn plant response rating [3, 22]: 0 | Corn plant response rating [3, 23]: 0 | Cocklebur plant response rating [4, 24]: 0 | Cocklebur plant response rating [4, 17]: 1 | Plant response rating, Cocklebur [4, 18]: 0 | Plant response rating, Cocklebur [4, 19]: 0 | Cocklebur plant response rating [4, 20]: 0 | Cocklebur plant response rating [4, 21]: 0 | Cocklebur plant response rating [4, 22]: 0 | Cocklebur plant response rating [4, 23]: 0 | Rape plant response rating [5, 24]: 0 | Plant response rating, Rape ([5]; Preemergence, Rate 62 g/ha): 0 | Plant response rating, Rape ([5]; Preemergence, Rate 125 g/ha): 0 | Rape plant response rating [5, 20]: 0 | Rape plant response rating [5, 21]: 0 | Rape plant response rating [5, 22]: 0 | Rape plant response rating [5, 23]: 0 | Sugarbeets plant response rating [6, 24]: 0 | Plant response rating, Sugarbeets ([6]; Preemergence, Rate 62 g/ha): 0 | Plant response rating, Sugarbeets ([6]; Preemergence, Rate 125 g/ha): 0 | Sugarbeets plant response rating [6, 20]: 0 | Sugarbeets plant response rating [6, 21]: 0 | Sugarbeets plant response rating [6, 22]: 0 | Sugarbeets plant response rating [6, 23]: 0 | Giant foxtail plant response rating [7, 24]: 8 | Giant foxtail plant response rating [7, 17]: 8 | Plant response rating, Giant foxtail [7, 18]: 10 | Plant response rating, Giant foxtail [7, 19]: 10 | Giant foxtail plant response rating [7, 20]: 10 | Giant foxtail plant response rating [7, 21]: 10 | Giant foxtail plant response rating [7, 22]: 3 | Giant foxtail plant response rating [7, 23]: 5 | Redroot pigweed plant response rating [8, 24]: 1 | Plant response rating, Redroot pigweed [8, 18]: 2 | Redroot pigweed plant response rating [8, 20]: 8 | Redroot pigweed plant response rating [8, 21]: 9 | Redroot pigweed plant response rating [8, 22]: 0 | Redroot pigweed plant response rating [8, 23]: 0 | Wild oats plant response rating [9, 24]: 0 | Plant response rating, Wild oats ([9]; Preemergence, Rate 62 g/ha): 0 | Plant response rating, Wild oats ([9]; Preemergence, Rate 125 g/ha): 2 | Wild oats plant response rating [9, 20]: 4 | Wild oats plant response rating [9, 21]: 7 | Wild oats plant response rating [9, 22]: 0 | Wild oats plant response rating [9, 23]: 0 | Velvetleaf plant response rating [10, 24]: 0 | Plant response rating, Velvetleaf ([10]; Preemergence, Rate 62 g/ha): 0 | Plant response rating, Velvetleaf ([10]; Preemergence, Rate 125 g/ha): 0 | Velvetleaf plant response rating [10, 20]: 0 | Velvetleaf plant response rating [10, 21]: 0 | Velvetleaf plant response rating [10, 22]: 0 | Velvetleaf plant response rating [10, 23]: 0 | Plant response rating, S. Flatsedge (0 to 10 scale, 0 is no effect, 10 is complete control) [11, 25]: 0 | S. Flatsedge plant response rating (0 to 10 scale, 0 is no effect, 10 is complete control) [11, 26]: 0 | S. Flatsedge plant response rating [11, 27]: 0 | S. Flatsedge plant response rating [11, 28]: 0 | Morningglory plant response rating [12, 24]: 7 | Plant response rating, Morningglory ([12]; Preemergence, Rate 62 g/ha): 0 | Plant response rating, Morningglory ([12]; Preemergence, Rate 125 g/ha): 0 | Morningglory plant response rating [12, 20]: 0 | Morningglory plant response rating [12, 21]: 0 | Morningglory plant response rating [12, 22]: 2 | Morningglory plant response rating [12, 23]: 4 | Bedstraw plant response rating ([13]; Rate 250 g/ha, scale 0 to 10): 0 | Bedstraw plant response rating ([13]; Rate 500 g/ha, scale of 0 to 10 where 0 is no effect and 10 is complete control): 0 | Bedstraw plant response rating ([13]; Rate 62 g/ha, scale 0 to 10 (0 no effect, 10 complete control)): 0 | Bedstraw plant response rating ([13]; Rate 125 g/ha, scale 0 to 10, 0 is no effect, 10 is complete control): 0 | Wheat plant response rating [14, 24]: 0 | Plant response rating, Wheat ([14]; Preemergence, Rate 62 g/ha): 0 | Plant response rating, Wheat ([14]; Preemergence, Rate 125 g/ha): 0 | Wheat plant response rating [14, 20]: 0 | Wheat plant response rating [14, 21]: 2 | Wheat plant response rating [14, 22]: 0 | Wheat plant response rating [14, 23]: 0 | Plant response rating, Rice (0 to 10 scale, 0 is no effect, 10 is complete control) [15, 25]: 0 | Rice plant response rating (0 to 10 scale, 0 is no effect, 10 is complete control) [15, 26]: 0 | Rice plant response rating [15, 27]: 0 | Rice plant response rating [15, 28]: 0 | Soybean plant response rating [16, 24]: 3 | Plant response rating, Soybean ([16]; Preemergence, Rate 62 g/ha): 0 | Plant response rating, Soybean ([16]; Preemergence, Rate 125 g/ha): 0 | Soybean plant response rating [16, 20]: 0 | Soybean plant response rating [16, 21]: 1 | Soybean plant response rating [16, 22]: 2 | Soybean plant response rating [16, 23]: 3
